# Assay results published in patent publication US9340590B2 (priority 2011, dated 2016).
# pIC50: −log10 of the molar value. Read-outs that look alike come from different tables or passages of the source. Positions of bridges follow the written chain, without caps; N, C: chain ends. Non-standard residues stand in square brackets, D forms with d. Residues, ends and D or L forms follow the SMILES beside them. Phe(4-F) = N[C@@H](Cc1ccc(F)cc1)C(=O)O; 1Nal = N[C@@H](Cc1cccc2ccccc12)C(=O)O
# Columns and labels:
# Experiment in all cases: cell-based
# hNav1.3 = hNav1.3 (Homo sapiens, UniProt Q9NY46); settings: IonWorks Quattro, read-out: IWQ Use Nav1.3
# hNav1.7 = hNav1.7 (Homo sapiens, UniProt Q15858); type: cell-based; settings: IonWorks Quattro, read-out: IWQ Use Nav1.7
# hNav1.7, sequence (Q15858 whole entry, looked up): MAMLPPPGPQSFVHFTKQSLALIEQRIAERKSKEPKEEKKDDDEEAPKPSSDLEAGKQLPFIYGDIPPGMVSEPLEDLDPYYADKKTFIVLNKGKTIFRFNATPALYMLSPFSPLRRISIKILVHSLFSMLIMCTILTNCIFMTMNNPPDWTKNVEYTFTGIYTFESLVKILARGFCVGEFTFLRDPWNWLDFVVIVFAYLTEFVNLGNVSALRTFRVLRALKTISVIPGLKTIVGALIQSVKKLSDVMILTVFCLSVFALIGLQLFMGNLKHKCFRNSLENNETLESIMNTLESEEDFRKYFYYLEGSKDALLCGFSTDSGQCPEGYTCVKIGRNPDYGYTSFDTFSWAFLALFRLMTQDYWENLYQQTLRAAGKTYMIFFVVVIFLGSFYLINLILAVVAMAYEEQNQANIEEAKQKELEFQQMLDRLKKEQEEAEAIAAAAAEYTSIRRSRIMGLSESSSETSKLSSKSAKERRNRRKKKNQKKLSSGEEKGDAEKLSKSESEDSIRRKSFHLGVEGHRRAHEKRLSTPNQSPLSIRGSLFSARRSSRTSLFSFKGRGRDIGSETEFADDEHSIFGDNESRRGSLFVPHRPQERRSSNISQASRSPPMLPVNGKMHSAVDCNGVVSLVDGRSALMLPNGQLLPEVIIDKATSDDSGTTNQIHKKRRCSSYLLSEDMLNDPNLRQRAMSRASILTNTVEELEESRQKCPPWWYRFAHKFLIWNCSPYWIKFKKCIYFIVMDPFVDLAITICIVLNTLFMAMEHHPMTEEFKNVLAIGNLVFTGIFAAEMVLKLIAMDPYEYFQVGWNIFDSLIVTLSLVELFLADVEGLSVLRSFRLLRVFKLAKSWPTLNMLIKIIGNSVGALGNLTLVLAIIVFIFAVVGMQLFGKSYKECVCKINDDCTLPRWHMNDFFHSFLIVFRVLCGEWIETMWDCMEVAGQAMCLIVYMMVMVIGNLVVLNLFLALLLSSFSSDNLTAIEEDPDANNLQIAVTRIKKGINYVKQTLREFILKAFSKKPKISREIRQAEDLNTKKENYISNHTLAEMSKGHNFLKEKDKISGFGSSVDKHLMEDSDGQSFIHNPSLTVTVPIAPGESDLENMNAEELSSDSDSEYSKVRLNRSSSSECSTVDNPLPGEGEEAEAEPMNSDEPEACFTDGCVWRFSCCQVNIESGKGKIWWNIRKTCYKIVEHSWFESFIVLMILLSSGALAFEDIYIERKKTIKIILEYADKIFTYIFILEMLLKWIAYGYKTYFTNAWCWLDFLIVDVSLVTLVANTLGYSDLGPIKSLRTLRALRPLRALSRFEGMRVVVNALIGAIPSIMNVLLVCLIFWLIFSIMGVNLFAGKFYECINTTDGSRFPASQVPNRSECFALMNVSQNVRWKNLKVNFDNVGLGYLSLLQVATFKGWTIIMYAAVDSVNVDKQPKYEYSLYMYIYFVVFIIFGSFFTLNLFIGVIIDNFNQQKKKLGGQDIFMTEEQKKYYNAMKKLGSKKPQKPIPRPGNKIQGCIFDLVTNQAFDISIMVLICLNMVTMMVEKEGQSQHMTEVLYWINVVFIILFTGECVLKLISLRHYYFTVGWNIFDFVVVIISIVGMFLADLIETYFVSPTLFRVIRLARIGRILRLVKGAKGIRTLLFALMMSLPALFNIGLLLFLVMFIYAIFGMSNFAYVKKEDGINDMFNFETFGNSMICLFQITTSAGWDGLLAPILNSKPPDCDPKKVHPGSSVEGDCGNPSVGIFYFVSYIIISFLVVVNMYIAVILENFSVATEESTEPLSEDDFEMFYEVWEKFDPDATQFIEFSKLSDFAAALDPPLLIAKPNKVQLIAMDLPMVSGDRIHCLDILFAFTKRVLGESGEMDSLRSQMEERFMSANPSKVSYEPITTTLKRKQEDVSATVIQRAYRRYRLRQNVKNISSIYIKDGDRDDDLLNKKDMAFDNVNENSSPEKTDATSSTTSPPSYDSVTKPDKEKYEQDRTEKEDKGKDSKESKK
# hNav1.5 = hNav1.5 (Homo sapiens, UniProt Q14524); settings: IonWorks Quattro, read-out: IWQ Use Nav1.5
# hNav1.5, sequence (Q14524 whole entry, looked up): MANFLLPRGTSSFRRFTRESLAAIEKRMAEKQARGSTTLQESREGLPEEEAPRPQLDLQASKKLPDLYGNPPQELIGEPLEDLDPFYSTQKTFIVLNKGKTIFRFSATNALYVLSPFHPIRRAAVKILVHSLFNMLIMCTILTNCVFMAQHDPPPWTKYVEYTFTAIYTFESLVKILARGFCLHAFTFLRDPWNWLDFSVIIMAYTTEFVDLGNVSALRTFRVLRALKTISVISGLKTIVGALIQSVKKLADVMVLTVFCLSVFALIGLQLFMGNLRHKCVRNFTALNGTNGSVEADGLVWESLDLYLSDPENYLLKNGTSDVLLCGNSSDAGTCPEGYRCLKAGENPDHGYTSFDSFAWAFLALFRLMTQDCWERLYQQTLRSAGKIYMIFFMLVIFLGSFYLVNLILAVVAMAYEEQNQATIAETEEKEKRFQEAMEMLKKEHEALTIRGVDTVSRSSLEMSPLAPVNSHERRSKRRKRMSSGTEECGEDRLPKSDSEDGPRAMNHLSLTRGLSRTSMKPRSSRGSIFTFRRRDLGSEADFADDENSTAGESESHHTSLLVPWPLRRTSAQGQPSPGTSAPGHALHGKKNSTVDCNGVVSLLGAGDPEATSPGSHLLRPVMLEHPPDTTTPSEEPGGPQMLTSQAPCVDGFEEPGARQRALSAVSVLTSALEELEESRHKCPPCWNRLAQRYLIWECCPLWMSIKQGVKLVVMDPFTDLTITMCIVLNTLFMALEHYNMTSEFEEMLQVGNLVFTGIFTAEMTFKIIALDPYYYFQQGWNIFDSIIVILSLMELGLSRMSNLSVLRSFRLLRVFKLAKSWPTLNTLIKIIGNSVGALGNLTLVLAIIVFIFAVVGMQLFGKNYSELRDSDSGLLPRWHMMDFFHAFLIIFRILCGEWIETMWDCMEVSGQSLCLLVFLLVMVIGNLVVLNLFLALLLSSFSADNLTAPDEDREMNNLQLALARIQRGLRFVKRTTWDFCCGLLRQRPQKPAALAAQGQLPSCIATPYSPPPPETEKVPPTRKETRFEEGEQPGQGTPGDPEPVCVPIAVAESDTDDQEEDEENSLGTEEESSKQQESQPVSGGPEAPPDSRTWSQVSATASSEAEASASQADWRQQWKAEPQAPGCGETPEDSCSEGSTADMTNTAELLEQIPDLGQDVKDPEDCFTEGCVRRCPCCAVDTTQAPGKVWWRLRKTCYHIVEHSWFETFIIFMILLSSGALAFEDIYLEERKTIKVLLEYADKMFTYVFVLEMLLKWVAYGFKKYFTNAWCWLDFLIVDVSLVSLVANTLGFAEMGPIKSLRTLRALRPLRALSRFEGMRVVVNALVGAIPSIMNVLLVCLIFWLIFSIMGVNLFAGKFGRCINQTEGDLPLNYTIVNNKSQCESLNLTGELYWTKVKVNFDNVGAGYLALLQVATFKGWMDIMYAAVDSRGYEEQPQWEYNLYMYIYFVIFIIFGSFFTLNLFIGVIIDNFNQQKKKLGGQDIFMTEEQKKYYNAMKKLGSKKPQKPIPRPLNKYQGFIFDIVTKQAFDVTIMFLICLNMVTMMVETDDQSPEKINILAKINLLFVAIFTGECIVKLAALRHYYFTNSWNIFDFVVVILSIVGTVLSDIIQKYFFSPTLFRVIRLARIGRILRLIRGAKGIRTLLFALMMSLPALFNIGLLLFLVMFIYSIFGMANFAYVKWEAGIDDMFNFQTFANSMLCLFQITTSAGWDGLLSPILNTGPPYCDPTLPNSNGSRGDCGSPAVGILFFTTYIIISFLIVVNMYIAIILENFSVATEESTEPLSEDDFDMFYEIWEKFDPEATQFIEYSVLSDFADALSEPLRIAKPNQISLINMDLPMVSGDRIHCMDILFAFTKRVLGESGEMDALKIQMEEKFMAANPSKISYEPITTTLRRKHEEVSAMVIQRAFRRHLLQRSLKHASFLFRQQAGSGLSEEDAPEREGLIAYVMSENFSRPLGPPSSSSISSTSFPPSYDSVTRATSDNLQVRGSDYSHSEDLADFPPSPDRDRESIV
# [1] = use-dependent protocol, hNav1.3
# [2] = use-dependent protocol, hNav1.7
# [3] = use-dependent protocol, hNav1.5
# [4] = clamped to −110 mV, depolarized to −10 mV, 5 min after compound, n=2
smiles,measurement,setting,value
"CC[C@H](C)[C@@H]1NC(=O)[C@@H]2CSSC[C@@H]3NC(=O)[C@H](C(C)C)NC(=O)[C@H](CC(C)C)NC(=O)[C@H](CC(N)=O)NC(=O)[C@@H]4CCCN4C(=O)[C@H](CCCNC(=N)N)NC(=O)[C@H](CSSC[C@H](NC(=O)[C@@H](N)CC(=O)O)C(=O)N[C@@H](CC(C)C)C(=O)NCC(=O)N[C@@H](Cc4ccccc4)C(=O)N[C@@H](CCSC)C(=O)N[C@@H](CCCNC(=N)N)C(=O)N[C@@H](CCCCN)C(=O)N2)NC(=O)[C@H](CSSC[C@@H](C(=O)N[C@@H](CCCCN)C(=O)N[C@@H](Cc2ccc(O)cc2)C(=O)N[C@@H](Cc2cccc4ccccc24)C(=O)N[C@@H](Cc2ccccc2)C(N)=O)NC(=O)[C@H](Cc2c[nH]c4ccccc24)NC(=O)[C@H](CCCCN)NC(=O)[C@H](Cc2c[nH]cn2)NC(=O)[C@H](CC(C)C)NC(=O)[C@H](CCCNC(=N)N)NC(=O)[C@H](CO)NC3=O)NC(=O)[C@H](CCCCN)NC(=O)[C@H](CC(=O)O)NC(=O)[C@H](CC(N)=O)NC(=O)[C@H](CC(=O)O)NC(=O)[C@@H]2CCCN2C1=O [compound 463] (H-DCLGFMRKCIPDNDKCCRPNLVCSRLHKWCKY[1Nal]F-NH2; disulfide 2-17, 9-23, 16-30)",pIC50,"hNav1.3; use-dependent block, hNav1.3",6.74
same,pIC50,"hNav1.7; use-dependent block, hNav1.7",6.89
same,pIC50,"hNav1.5; use-dependent block, hNav1.5",< 5.30
"CC[C@H](C)[C@@H]1NC(=O)[C@@H]2CSSC[C@@H]3NC(=O)[C@H](C(C)C)NC(=O)[C@H](CC(C)C)NC(=O)[C@H](CC(N)=O)NC(=O)[C@@H]4CCCN4C(=O)[C@H](CCCNC(=N)N)NC(=O)[C@H](CSSC[C@H](NC(=O)[C@@H](N)CC(=O)O)C(=O)N[C@@H](CC(C)C)C(=O)NCC(=O)N[C@@H](Cc4ccc(F)cc4)C(=O)N[C@@H](Cc4ccccc4)C(=O)N[C@@H](CCCNC(=N)N)C(=O)N[C@@H](CCCCN)C(=O)N2)NC(=O)[C@H](CSSC[C@@H](C(=O)N[C@@H](CCCCN)C(=O)N[C@@H](Cc2ccc(O)cc2)C(=O)N[C@H](C(=O)N[C@@H](Cc2ccccc2)C(N)=O)C(C)C)NC(=O)[C@H](Cc2c[nH]c4ccccc24)NC(=O)[C@H](CCCCN)NC(=O)[C@H](Cc2c[nH]cn2)NC(=O)[C@H]([C@@H](C)O)NC(=O)[C@H](CCCNC(=N)N)NC(=O)[C@H](CO)NC3=O)NC(=O)[C@H](CCCCN)NC(=O)[C@H](CC(=O)O)NC(=O)[C@H](CC(N)=O)NC(=O)[C@H](CC(=O)O)NC(=O)[C@@H]2CCCN2C1=O [compound 624] (H-DCLG[Phe(4-F)]FRKCIPDNDKCCRPNLVCSRTHKWCKYVF-NH2; disulfide 2-17, 9-23, 16-30)",pIC50,hNav1.3; [1],7.70
same,pIC50,hNav1.7; [2],7.22
same,pIC50,hNav1.5; [3],4.93
"CC[C@H](C)[C@@H]1NC(=O)[C@@H]2CSSC[C@@H]3NC(=O)[C@H](C(C)C)NC(=O)[C@H](CC(C)C)NC(=O)[C@H](CC(N)=O)NC(=O)[C@@H]4CCCN4C(=O)[C@H](CCCNC(=N)N)NC(=O)[C@H](CSSC[C@H](NC(=O)[C@@H](N)CC(=O)O)C(=O)N[C@@H](CCC(N)=O)C(=O)NCC(=O)N[C@@H](Cc4ccccc4)C(=O)N[C@@H](CCSC)C(=O)N[C@@H](CCCNC(=N)N)C(=O)N[C@@H](CCCCN)C(=O)N2)NC(=O)[C@H](CSSC[C@@H](C(=O)N[C@@H](CCCCN)C(=O)N[C@@H](Cc2ccc(O)cc2)C(=O)N[C@H](C(=O)N[C@@H](Cc2ccccc2)C(N)=O)C(C)C)NC(=O)[C@H](Cc2c[nH]c4ccccc24)NC(=O)[C@H](CCCCN)NC(=O)[C@H](Cc2c[nH]cn2)NC(=O)[C@H]([C@@H](C)O)NC(=O)[C@H](CCCNC(=N)N)NC(=O)[C@H](CO)NC3=O)NC(=O)[C@H](CCCCN)NC(=O)[C@H](CC(=O)O)NC(=O)[C@H](CC(N)=O)NC(=O)[C@H](CC(=O)O)NC(=O)[C@@H]2CCCN2C1=O [SEQ ID NO: 98] (H-DCQGFMRKCIPDNDKCCRPNLVCSRTHKWCKYVF-NH2; disulfide 2-17, 9-23, 16-30)",pIC50,hNav1.3; [4],6.62
same,pIC50,hNav1.7; [4],6.60
same,pIC50,hNav1.5; [4],4.79
CC[C@H](C)[C@@H]1NC(=O)[C@@H]2CSSC[C@@H]3NC(=O)[C@H](C(C)C)NC(=O)[C@H](CC(C)C)NC(=O)[C@H](CC(N)=O)NC(=O)[C@@H]4CCCN4C(=O)[C@H](CCCNC(=N)N)NC(=O)[C@H](CSSC[C@H](NC(=O)[C@@H](N)CC(=O)O)C(=O)N[C@@H](CC(C)C)C(=O)NCC(=O)N[C@@H](Cc4ccc(C(=O)c5ccccc5)cc4)C(=O)N[C@@H](CCSC)C(=O)N[C@@H](CCCNC(=N)N)C(=O)N[C@@H](CCCCN)C(=O)N2)NC(=O)[C@H](CSSC[C@@H](C(=O)N[C@@H](CCCCN)C(=O)N[C@@H](Cc2ccc(O)cc2)C(=O)N[C@H](C(=O)N[C@@H](Cc2ccccc2)C(N)=O)C(C)C)NC(=O)[C@H](Cc2c[nH]c4ccccc24)NC(=O)[C@H](CCCCN)NC(=O)[C@H](Cc2c[nH]cn2)NC(=O)[C@H]([C@@H](C)O)NC(=O)[C@H](CCCNC(=N)N)NC(=O)[C@H](CO)NC3=O)NC(=O)[C@H](CCCCN)NC(=O)[C@H](CC(=O)O)NC(=O)[C@H](CC(N)=O)NC(=O)[C@H](CC(=O)O)NC(=O)[C@@H]2CCCN2C1=O [compound 685],pIC50,hNav1.3; [1],6.82
same,pIC50,hNav1.7; [2],6.17
same,pIC50,hNav1.5; [3],< 5.30
"CSCC[C@@H]1NC(=O)[C@H](Cc2ccccc2)NC(=O)CNC(=O)[C@H](CC(C)C)NC(=O)[C@@H](NC(=O)[C@@H](N)CC(=O)O)CSSC[C@@H]2NC(=O)[C@@H]3CSSC[C@@H](C(=O)N[C@@H](CCCCN)C(=O)N[C@@H](Cc4ccc(O)cc4)C(=O)N[C@H](C(=O)N[C@@H](Cc4ccccc4)C(N)=O)C(C)C)NC(=O)[C@H](Cc4c[nH]c5ccccc45)NC(=O)[C@H](CCCCN)NC(=O)[C@H](Cc4c[nH]cn4)NC(=O)[C@H]([C@@H](C)O)NC(=O)[C@H](CCCNC(=N)N)NC(=O)[C@H](CO)NC(=O)[C@H](CSSC[C@H](NC(=O)[C@H](CCCCN)NC(=O)[C@H](CCCNC(=N)N)NC1=O)C(=O)N1CCC[C@H]1C(=O)N1CCC[C@H]1C(=O)N[C@@H](CC(=O)O)C(=O)N[C@@H](CC(N)=O)C(=O)N[C@@H](CC(=O)O)C(=O)N[C@@H](CCCCN)C(=O)N3)NC(=O)[C@H](C(C)C)NC(=O)[C@H](CC(C)C)NC(=O)[C@H](CC(N)=O)NC(=O)[C@@H]1CCCN1C(=O)[C@H](CCCNC(=N)N)NC2=O [compound 308] (H-DCLGFMRKCPPDNDKCCRPNLVCSRTHKWCKYVF-NH2; disulfide 2-17, 9-23, 16-30)",pIC50,hNav1.3; Use,6.62
same,pIC50,hNav1.7; Use,6.40
same,pIC50,hNav1.5; Use,< 5.30
"CC[C@H](C)[C@@H]1NC(=O)[C@@H]2CSSC[C@@H]3NC(=O)[C@H](C(C)C)NC(=O)[C@H](CC(C)C)NC(=O)[C@H](CC(N)=O)NC(=O)[C@@H]4CCCN4C(=O)[C@H](CCCNC(=N)N)NC(=O)[C@H](CSSC[C@H](NC(=O)[C@@H](N)CC(=O)O)C(=O)N[C@@H](CC(C)C)C(=O)NCC(=O)N[C@@H](C)C(=O)N[C@@H](CC(C)C)C(=O)N[C@@H](CCCNC(=N)N)C(=O)N[C@@H](CCCCN)C(=O)N2)NC(=O)[C@H](CSSC[C@@H](C(=O)N[C@@H](CCCCN)C(=O)N[C@@H](Cc2ccc(O)cc2)C(=O)N[C@H](C(=O)N[C@@H](Cc2ccccc2)C(=O)O)C(C)C)NC(=O)[C@H](Cc2c[nH]c4ccccc24)NC(=O)CNC(=O)[C@H](Cc2c[nH]cn2)NC(=O)[C@H]([C@@H](C)O)NC(=O)[C@H](CCCNC(=N)N)NC(=O)[C@H](CO)NC3=O)NC(=O)[C@H](CCCCN)NC(=O)[C@H](CC(=O)O)NC(=O)[C@H](CC(N)=O)NC(=O)[C@H](CC(=O)O)NC(=O)[C@@H]2CCCN2C1=O [compound 598] (H-DCLGALRKCIPDNDKCCRPNLVCSRTHGWCKYVF-OH; disulfide 2-17, 9-23, 16-30)",pIC50,"hNav1.3; use-dependent block, hNav1.3",5.40
same,pIC50,"hNav1.7; use-dependent block, hNav1.7",< 5.30
same,pIC50,"hNav1.5; use-dependent block, hNav1.5",4.90
"CC[C@H](C)[C@@H]1NC(=O)[C@@H]2CSSC[C@@H]3NC(=O)[C@H](CC(N)=O)NC(=O)[C@H](CC(C)C)NC(=O)[C@H](CC(N)=O)NC(=O)[C@@H]4CCCN4C(=O)[C@H](CCCNC(=N)N)NC(=O)[C@H](CSSC[C@H](NC(=O)[C@@H](N)CC(=O)O)C(=O)N[C@@H](CC(C)C)C(=O)NCC(=O)N[C@@H](Cc4ccccc4)C(=O)N[C@@H](CCSC)C(=O)N[C@@H](CCCNC(=N)N)C(=O)N[C@@H](CCCCN)C(=O)N2)NC(=O)[C@H](CSSC[C@@H](C(=O)N[C@@H](CCCCN)C(=O)N[C@@H](Cc2ccc(O)cc2)C(=O)N[C@H](C(=O)N[C@@H](Cc2ccccc2)C(N)=O)C(C)C)NC(=O)[C@H](Cc2c[nH]c4ccccc24)NC(=O)[C@H](CCCCN)NC(=O)[C@H](Cc2c[nH]cn2)NC(=O)[C@H]([C@@H](C)O)NC(=O)[C@H](CCCNC(=N)N)NC(=O)[C@H](CO)NC3=O)NC(=O)[C@H](CCCCN)NC(=O)[C@H](CC(=O)O)NC(=O)[C@H](CC(N)=O)NC(=O)[C@H](CC(=O)O)NC(=O)[C@@H]2CCCN2C1=O [compound 325] (H-DCLGFMRKCIPDNDKCCRPNLNCSRTHKWCKYVF-NH2; disulfide 2-17, 9-23, 16-30)",pIC50,hNav1.3; Use,7.05
same,pIC50,hNav1.7; Use,6.62
same,pIC50,hNav1.5; Use,5.09
